# Assay results from patent US20090191193A1, “Aryl Vinyl Sulfides, Sulfones, Sulfoxides and Sulfonamides, Derivatives Thereof and Therapeutic Uses Thereof” (TEMPLE UNIVERSITY-OF THE COMMONWEALTH SYSTEM OF HIGHER …, priority 2006, published 2009).
# Key:
# DU145 (prostate cancer) = test: Effect on tumor cell lines, viable cell count by trypan blue exclusion (Latham et al.): DU145; type: cell-based; settings: DU145 prostate cancer cells, viable cell count 96 hours after treatment
# [1] = test system: K562 (chronic myelogenous leukaemia); test: Effect on tumor cell lines, viable cell count by trypan blue exclusion (Latham et al.): K562; type: cell-based; settings: K562 chronic myelogenous leukaemia cells, viable cell count 96 hours after treatment
# Experimental: The effect of the compounds of the invention on tumor cells was determined by the assay described by Latham et al., Oncogene 12:827-837 (1996). Tumor cells DU145 (prostate cancer), K562 (chronic myelogenous leukaemia), BT20 (breast carcinoma), H157 (non small cell lung carcinoma), or DLD1 (colon carcinoma) were plated in 6-well dishes at a cell density of 1.0×10^5 cells per 35-mm^2 well. […] The total number of viable cells was determined 96 hours later by trypsinizing the wells and counting the number of viable cells, as determined by trypan blue exclusion, using a hemacytometer. Normal HFL cells were treated with the same compounds under the same conditions of concentration and time.
SMILES,"IC50 (DU145 (prostate cancer); Homo sapiens, DU-145, 96 h) [µM]","IC50 ([1]; Homo sapiens, K562, 96 h) [µM]",melting point [°C],IC50 (DU145 (prostate cancer)) [µM],IC50 [1] [µM]
COc1ccc(NS(=O)(=O)/C(C#N)=C/c2c[nH]c3ccccc23)cc1 [Example 278],50 to 100,50 to 100,201 to 205,,
N#C/C(=C\c1c[nH]c2ccc(Br)cc12)S(=O)(=O)Cc1ccc(F)cc1 [Example 78],50 to 100,50 to 100,260 to 270,,
N#C/C(=C\c1ccc(F)c(Cl)c1)S(=O)(=O)Nc1ccc(F)cc1 [Example 245],50 to 100,50 to 100,118 to 120,,
N#C/C(=C\c1ccc(F)cc1Cl)S(=O)(=O)Cc1ccc(Cl)cc1Cl [Example 95],50 to 100,50 to 100,142 to 148,,
COc1ccc(NS(=O)(=O)/C(C#N)=C/c2ccccc2OCc2ccccc2)cc1 [Example 277],10 to 25,10 to 25,111 to 112,,
N#C/C(=C\c1ccc(Cl)cc1)S(=O)(=O)Cc1ccc(Cl)cc1Cl [Example 100],> 100,> 100,119 to 125,,
N#C/C(=C\c1c[nH]c2ccc(Cl)cc12)S(=O)(=O)Cc1ccc(Cl)cc1Cl [Example 91],,,150 to 161,10 to 25,10 to 25
COc1ccc(/C=C(\C#N)S(=O)(=O)Cc2ccc(F)cc2)cc1O [Example 80],> 100,50 to 100,193 to 205,,
N#C/C(=C\c1ccc(C#N)cc1F)S(=O)(=O)Cc1ccc(Br)cc1 [Example 16],75,10,202 to 204,,
N#C/C(=C\c1ccccc1O)S(=O)(=O)Cc1ccc(Cl)cc1Cl [Example 108],> 100,> 100,219 to 223,,
COc1ccc(CS(=O)(=O)/C(C#N)=C/c2ccc(Cl)c(Cl)c2Cl)cc1 [Example 146],50 to 100,25 to 50,136 to 138,,
N#C/C(=C\c1ccc(Cl)cc1Cl)S(=O)(=O)Cc1ccc(F)cc1 [Example 85],> 100,50 to 100,153 to 163,,
N#C/C(=C\c1ccc(F)cc1F)S(=O)(=O)Nc1ccc(Br)cc1 [Example 226],25 to 50,25 to 50,165 to 166,,
Cc1ccc(/C=C(\C#N)S(=O)(=O)Cc2ccc(Cl)cc2)cc1C [Example 66],50 to 100,50 to 100,191 to 202,,
Cc1ccoc1/C=C(\C#N)S(=O)(=O)Cc1ccccc1 [Example 128],> 100,50 to 100,118 to 121,,
N#C/C(=C\c1c[nH]c2ccccc12)S(=O)(=O)Nc1ccccc1Oc1ccccc1 [Example 197],50 to 100,50 to 100,210 to 212,,
COc1ccc(/C=C(\C#N)S(=O)(=O)Cc2ccc(Cl)cc2Cl)c(F)c1 [Example 65],50 to 100,50 to 100,140 to 155,,
N#C/C(=C\c1ccc(O)c([N+](=O)[O-])c1)S(=O)(=O)Cc1ccccc1 [Example 139],> 100,50 to 100,159 to 162,,
N#C/C(=C\c1c[nH]c2ccc(Br)cc12)S(=O)(=O)Cc1ccc(Cl)cc1Cl [Example 71],50 to 100,50 to 100,264 to 275,,
N#C/C(=C\c1ccc(Cl)cc1)S(=O)(=O)Nc1ccc(F)cc1 [Example 248],> 100,50 to 100,108 to 110,,
Cc1ccc(C)c(/C=C(\C#N)S(=O)(=O)Cc2ccccc2)c1 [Example 136],25 to 50,1 to 10,126 to 129,,
N#C/C(=C\c1c[nH]c2ccc(Br)cc12)S(=O)(=O)Cc1ccc(Cl)cc1 [Example 72],> 100,> 100,240 to 250,,
N#C/C(=C\c1ccc(Cl)cc1)S(=O)(=O)Cc1ccc(F)cc1 [Example 89],50 to 100,50 to 100,150 to 155,,
Cc1ccc(/C=C(\C#N)S(=O)(=O)Nc2ccc(F)cc2)s1 [Example 246],> 100,> 100,133 to 134,,

# Other lines, results leading:
"IC50 (DU145 (prostate cancer); Homo sapiens, DU-145, 96 h) [µM]","IC50 ([1]; Homo sapiens, K562, 96 h) [µM]",melting point [°C],IC50 (DU145 (prostate cancer)) [µM],IC50 [1] [µM],SMILES
> 100,50 to 100,122 to 130,,,Cc1ccc(C)c(/C=C(\C#N)S(=O)(=O)Cc2ccc(F)cc2)c1 [Example 90]
> 100,> 100,154 to 156,,,COc1ccc(NS(=O)(=O)/C(C#N)=C/c2sccc2C)cc1 [Example 281]
> 100,> 100,165 to 170,,,COc1ccc(/C=C(\C#N)S(=O)(=O)Cc2ccc(Cl)cc2Cl)c(OC)c1 [Example 111]
50 to 100,25 to 50,155 to 160,,,COc1ccc(CS(=O)(=O)/C(C#N)=C/c2ccc(OC)c(OC)c2)cc1 [Example 148]
> 100,> 100,150 to 152,,,CCOc1ccc(/C=C(\C#N)S(=O)(=O)Nc2ccc(F)cc2)cc1OC [Example 251]
> 100,> 100,126 to 142,,,Cc1ccc(/C=C(\C#N)S(=O)(=O)Cc2ccc(Cl)cc2Cl)cc1C [Example 97]
> 100,50 to 100,178 to 180,,,COc1cc(/C=C(\C#N)S(=O)(=O)Nc2ccc(C)cc2C)cc(OC)c1OC [Example 268]
> 100,> 100,118 to 121,,,COc1ccc(NS(=O)(=O)/C(C#N)=C/c2ccc(C)s2)cc1 [Example 283]
> 100,50 to 100,142 to 149,,,Cc1ccc(C)c(/C=C(\C#N)S(=O)(=O)Cc2ccc(Cl)cc2Cl)c1 [Example 96]
50 to 100,10 to 25,156 to 158,,,COc1ccc(NS(=O)(=O)/C(C#N)=C/c2cc(OC)ccc2OC)cc1 [Example 202]
> 100,> 100,141 to 142,,,Cc1ccc(/C=C(\C#N)S(=O)(=O)Nc2ccc(F)cc2)cc1C [Example 244]
,,134 to 136,1 to 10,1 to 10,COc1ccc(NS(=O)(=O)/C(C#N)=C/c2c(OC)cc(OC)cc2OC)cc1 [Example 191]
1 to 10,1 to 10,231 to 235,,,Cc1ccc(NS(=O)(=O)/C(C#N)=C/c2c[nH]c3ccc(Br)cc23)c(C)c1 [Example 269]
> 100,50 to 100,161 to 164,,,Cc1ccc(C)c(/C=C(\C#N)S(=O)(=O)Nc2ccc(F)cc2)c1 [Example 238]
> 100,> 100,127 to 129,,,COc1ccc(/C=C(\C#N)S(=O)(=O)Nc2ccc(C)cc2C)cc1 [Example 270]
> 100,> 100,146 to 150,,,CCOc1ccc(/C=C(\C#N)S(=O)(=O)Nc2ccc(C)cc2C)cc1OC [Example 273]
> 100,> 100,120 to 123,,,COc1cc(/C=C(\C#N)S(=O)(=O)Cc2ccc(F)cc2)cc(OC)c1 [Example 86]
> 100,> 100,124 to 128,,,Cc1ccc(C)c(/C=C(\C#N)S(=O)(=O)Cc2ccc(Br)cc2)c1 [Example 119]
> 100,50 to 100,136 to 139,,,"COc1ccccc1/C=C(\C#N)S(=O)(=O)Nc1ccc(C)cc1C [Example 266, (E)-2-[(2,4-dimethylphenyl)sulfamoyl]-3-(2-methoxyphenyl)acrylonitrile]"
